Read-outs that look alike come from different tables or passages of the source.
What was measured:
[1] = data source SDS, GHS hazard category for skin sensitizers or negative in a skin sensitization test, cited from earlier work
[2] = LLNA (Local Lymph Node Assay), SI (Stimulus Index); type: in vivo; conditions: for Skin Sensitization Potential: judged from SI by LLNA; for SI (by LLNA): measured according to method of JP-2012-140593-A
From the text: In the present disclosure, compounds having skin sensitization potential refer to those determined to be positive in a skin sensitization test. Hereinafter, such compounds may also be referred to as “skin-sensitizing compounds” or “skin sensitizers”. The skin sensitization test is not limited to a specific test. As an example of the skin sensitization test, LLNA (Local Lymph Node Assay) is known that evaluates the degree of sensitization potential by SI (Stimulus Index). SI of 3 or more is determined to be positive.
Skin sensitization information described in Table 1 was obtained from SDSs available in Japan or other countries. SI (determined by LLNA) values described in Table 1 were measured according to a method described in JP-2012-140593-A.

CCC(Cc1ccc(C)cc1)(C(=O)c1ccc(N2CCOCC2)cc1)N(C)C (stereo not drawn) [(B2-2), 2-(Dimethylamino)-2-[(4-methylphenyl)methyl]-1-(4-morpholinophenyl)butane-1-one]
Skin Sensitization Potential [1]: Negative | Skin Sensitization Potential ([1]; listed as IRGACURE 379): negative

Cc1cc(C)c(C(=O)P(=O)(c2ccccc2)c2ccccc2)c(C)c1 [(B1-1), Diphenyl(2,4,6-trimethylbenzoyl)phosphine oxide]
Skin Sensitization Potential [1]: 1B | Skin Sensitization Potential ([1]; listed as IRGACURE TPO): sub-category 1B

CC(C)(O)C(=O)c1ccc(OCCO)cc1 [(B2-4), 1-[4-(2-hydroxyethoxy)phenyl]-2-hydroxy-2-methylpropane-1-one]
Skin Sensitization Potential [1]: Negative | Skin Sensitization Potential ([1]; listed as IRGACURE 2959): negative

CSc1ccc(C(=O)C(C)(C)N2CCOCC2)cc1 [(B2-1), 2-Methyl-1-[4-(methylthio)phenyl]-2-morpholinopropane-1-one]
Skin Sensitization Potential [1]: Negative | Skin Sensitization Potential ([1]; listed as IRGACURE 907): negative

CCCCCCC(=NOC(=O)c1ccccc1)C(=O)c1ccc(Sc2ccccc2)cc1 [(B1-3), 1-[4-(Phenylthio)phenyl]octane-1,2-dione 2-(o-benzoyloxime)]
Skin Sensitization Potential [1]: Category 1 | Skin Sensitization Potential ([1]; listed as IRGACURE OXE01): category 1

CCn1c2ccc(C(=O)c3ccccc3C)cc2c2cc(C(C)=NOC(C)=O)ccc21 [(B1-4), 1-[9-Ethyl-6-(2-methylbenzoyl)-9H-carbazole-3-yl]ethanone o-acetyloxime]
Skin Sensitization Potential [1]: 1B | Skin Sensitization Potential ([1]; listed as IRGACURE OXE02): sub-category 1B

Cc1cc(C)c(C(=O)P(=O)(C(=O)c2c(C)cc(C)cc2C)c2ccccc2)c(C)c1 [(B1-2), Phenylbis(2,4,6-trimethylbenzoyl)phosphine oxide]
Skin Sensitization Potential [1]: Category 1 | Skin Sensitization Potential ([1]; listed as IRGACURE 819): category 1

C=CC(=O)NCCO [(A-2), N-(2-Hydroxyethyl)acrylamide]
Skin Sensitization Potential [1]: Negative | Skin Sensitization Potential ([1]; listed as HEAA): negative

C=C(C)C(=O)OCC(C)(C)COC(=O)C(=C)C [(A-5), Neopentyl glycol dimethacrylate]
Skin Sensitization Potential [2]: Negative | Skin Sensitization Potential ([2]; listed as neopentyl glycol dimethacrylate): non-skin-sensitizing | SI (by LLNA) [2]: SI = 2.0

Tricyclodecane dimethanol dimethacrylate [(A-4)]
Skin Sensitization Potential [2]: Negative | Skin Sensitization Potential ([2]; listed as tricyclodecane dimethanol dimethacrylate): non-skin-sensitizing | SI (by LLNA) [2]: SI = 1.3

O=C(c1ccccc1)C1(O)CCCCC1 [(B2-3), 1-Hydroxycyclohexyl phenyl ketone]
Skin Sensitization Potential [1]: Negative | Skin Sensitization Potential ([1]; listed as IRGACURE 184): negative

Source: patent publication US9982152B2, “Active energy ray curable composition, cured product, composition storage container, two-dimensional or three-dimensional image forming apparatus, and two-dimensional or three-dimensional image forming method” (Ricoh Company, Ltd., priority 2016, dated 2018)
